Experimental data as given in patent US4452817A, “Anaesthetic compositions containing 2,6-diisopropylphenol” (Imperial Chemical Industries PLC, priority 1974, dated 1984).

How the values were obtained:
pigtail monkey = conditions: 2% solution
Method: A 2% sterile solution of 2,6-diisopropylphenol prepared as described in Example 14 is administered intravenously to a pigtail monkey weighing 6.8 kg. at a rate of 0.05 mg. of phenol/kg. bodyweight/second until a dose of 34 mg. (5 mg./kg. bodyweight) of the phenol has been injected.

cat [1] = conditions: 10 mg./kg. i.v., topical anaesthetic applied to the larynx
Text: A cat is anaesthetised exactly as described in Example 17. […] Anaesthesia is thereafter maintained with an inhalation anaesthetic delivered through an Ayre's T-piece circuit.

cat [2] = conditions: 10 mg./kg. i.v. plus four supplementary i.v. injections each of 2.0 mg./kg.
Text: A cat weighing 2.5 kg. is anaesthetised exactly as described in Example 17.

mice [3] = test: Mean sleeping time of mice after twice the HD50, intravenous; type: in vivo, mouse; conditions: for 2,6-diisopropylphenol 27 mg./kg., standard deviation ±0.59 minutes
Method: Each of 10 mice is injected intravenously with 27 mg./kg. bodyweight (twice the HD50) of 2,6-diisopropylphenol as a 1% sterile solution described in Example 14.

cat [4] = test: Intramuscular anaesthesia in a cat (Example 20); type: in vivo; conditions: 35 mg./kg. intramuscularly
Method: Righting reflexes are lost after 15 minutes, after a further 25 minutes anaesthesia has deepened sufficiently to allow intubation to be carried out. Muscle tone returns after a further 60 minutes and thereafter recovery is uneventful.

cat [5] = conditions: 5 cats, 2% solution
mice [6] = test: HD50 (anaesthesia, loss of righting reflex) and LD50 in mice, intravenous; conditions: Mus musculus, read-out: HD50 (dose required to cause anaesthesia, loss of righting reflex for at least 30 seconds, in 5 out of 10 mice)
Method: (§1) Each mouse is various groups of 10 mice is injected intravenously with a 1% sterile solution of 2,6-diisopropylphenol as described in Example 14, the total dose administered being the same within any group but differing between groups.

[7] = as above; conditions: mouse, in vivo; for LD50: mice
Method: as §1

[8] = tested on: mice, rats, rabbits, cats, rhesus or pigtail monkeys, pigs, sheep, horses, or cattle; test: Intravenous anaesthesia in various animal species; type: in vivo
Method: Anaesthesia is produced in less than 1 minute and lasts, depending upon the species and the dose, from 3 to 25 minutes. […] The compound may also be administered intramuscularly.

[9] = LD50 (dose required to kill 5 out of 10 mice), intravenous, 2,6-diisopropylphenol as 1% sterile solution of Example 14
[10] = intravenous, single dose of between 2.5 and 10 mg. per kg. bodyweight

## CC(C)c1cccc(C(C)C)c1O [2,6-diisopropylphenol]
Pigtail monkey; 5 mg./kg. i.v. at 0.05 mg./kg./second
  Induction of anaesthesia: smooth and rapid
Pigtail monkey; 5 mg./kg. i.v.
  Duration of anaesthesia: approximately 6 minutes
  Muscle relaxation: muscle relaxation is produced
  Quality of recovery: rapid
  Spinal reflexes: spinal reflexes are depressed
  Time after induction at which recovery is almost complete: 16 min
Cat [1]
  Depth of anaesthesia: sufficient depth to allow intubation of the trachea
Cat [2]
  Quality of recovery after the operation: rapid
  Time after completion of the operation until cat is able to stand: 35 min
Cat [2]; 2% solution
  Maintenance of anaesthesia during 45 minute laparotomy: anaesthesia is maintained during that time
Mice [3]
  Mean sleeping time after twice the HD50: 4.29 min
Cat [4]; 2% solution
  Further time (after intubation depth) until muscle tone returns: 60 min
  Further time after loss of righting reflexes until anaesthesia is deep enough for intubation: 25 min
  Quality of recovery: uneventful
  Time to loss of righting reflexes: 15 min
Cat [4]; during the subsequent 7 days
  Pain or lesion at the site of injection: No pain or lesion at the site of injection is observed
Cat [5]; 10 mg./kg. i.v. at 0.05 mg./kg./second
  Induction of anaesthesia: rapid and free from excitment
Cat [5]; 10 mg./kg. i.v.
  Muscle relaxation: muscle relaxation is produced
  Quality of further recovery: smooth and rapid
  Spinal reflexes: spinal reflexes are depressed
  Time to return of response to painful stimulation: approximately 10 minutes
Cat [5]; 10 mg./kg. i.v., standard deviation ±7.35 minutes
  Mean time from induction to reappearance of righting reflexes: 34 min
Cat [5]; 10 mg./kg. i.v., ±10.29 minutes
  Mean time after induction until cat is able to stand again: 42.6 min
Mice [6]
  ED50: 13.5 mg/kg
[7]
  selectivity ratio: 4.14
[7]; [9]
  LD50: 56 mg/kg
[7]; LD50 dose in mice (general description)
  LD50: 65 mg/kg
[8]; all animals, intravenous, 2.5 to 10 mg. per kg.
  Quality of recovery: normal and rapid
[8]; at anaesthetic doses
  Adverse side-effects: no adverse side-effects are noted
[8]; [10]
  Quality of anaesthesia produced: smooth and rapid anaesthesia
  Time in which anaesthesia is produced: less than 1 minute

## CCCC(C)C1(CC)C(=O)NC(=S)NC1=O (centres unmarked) [thiopentone sodium, reference compound]
Mice [3]
  Mean sleeping time after twice the HD50: 5.97 ± 1.63 min
Mice [6]
  ED50: 23.5 mg/kg
[7]
  selectivity ratio: 4.26
[7]; [9]
  LD50: 100 mg/kg
